Measured values: PubChem BioAssay (NCI)
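At the GI50, growth is halved. TGI denotes the concentration required for complete inhibition of growth.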

How the values were obtained:
Assay in all cases: NCI-60 cell line screen, 384-well format
M14 melanoma = test system: M14 melanoma
786-0 renal = test system: 786-0 renal
IGROV1 ovarian = test system: IGROV1 ovarian
KM12 colon = test system: KM12 colon
HS 578T breast = test system: HS 578T breast
K-562 leukemia = test system: K-562 leukemia
HCC-2998 colon = test system: HCC-2998 colon
SK-MEL-5 melanoma = test system: SK-MEL-5 melanoma
ACHN renal = test system: ACHN renal
SNB-75 CNS = test system: SNB-75 CNS
SF-539 CNS = test system: SF-539 CNS
SK-MEL-28 melanoma = test system: SK-MEL-28 melanoma
PC-3 prostate = test system: PC-3 prostate
OVCAR-8 ovarian = test system: OVCAR-8 ovarian
SF-295 CNS = test system: SF-295 CNS
TK-10 renal = test system: TK-10 renal
SK-OV-3 ovarian = test system: SK-OV-3 ovarian
HCT-116 colon = test system: HCT-116 colon
HOP-92 NSCLC = test system: HOP-92 NSCLC
OVCAR-3 ovarian = test system: OVCAR-3 ovarian
LOX IMVI melanoma = test system: LOX IMVI melanoma
NCI-H460 NSCLC = test system: NCI-H460 NSCLC
COLO 205 colon = test system: COLO 205 colon
HOP-62 NSCLC = test system: HOP-62 NSCLC
NCI-H522 lung = test system: NCI-H522 lung
MDA-MB-435 melanoma = test system: MDA-MB-435 melanoma
UO-31 renal = test system: UO-31 renal
T-47D breast = test system: T-47D breast
MDA-MB-468 breast = test system: MDA-MB-468 breast
MCF7 breast = test system: MCF7 breast
SF-268 CNS = test system: SF-268 CNS
A498 renal = test system: A498 renal
CAKI-1 renal = test system: CAKI-1 renal
UACC-62 melanoma = test system: UACC-62 melanoma
A549 NSCLC = test system: A549 NSCLC
OVCAR-5 ovarian = test system: OVCAR-5 ovarian
NCI-H23 lung = test system: NCI-H23 lung
NCI-H226 lung = test system: NCI-H226 lung
MALME-3M melanoma = test system: MALME-3M melanoma
NCI/ADR-RES ovarian = test system: NCI/ADR-RES ovarian
OVCAR-4 ovarian = test system: OVCAR-4 ovarian
BT-549 breast = test system: BT-549 breast
EKVX NSCLC = test system: EKVX NSCLC
MOLT-4 leukemia = test system: MOLT-4 leukemia
RPMI-8226 leukemia = test system: RPMI-8226 leukemia
DU-145 prostate = test system: DU-145 prostate
SN12C renal = test system: SN12C renal
HCT-15 colon = test system: HCT-15 colon
SNB-19 CNS = test system: SNB-19 CNS
HT29 colon = test system: HT29 colon
NCI-H322M lung = test system: NCI-H322M lung
UACC-257 melanoma = test system: UACC-257 melanoma
U251 glioblastoma = test system: U251 glioblastoma
CCRF-CEM leukemia = test system: CCRF-CEM leukemia
RXF 393 renal = test system: RXF 393 renal
SW-620 colon = test system: SW-620 colon
HL-60(TB) leukemia = test system: HL-60(TB) leukemia
MDA-MB-231 breast = test system: MDA-MB-231 breast

## CNC(=O)c1c(F)cccc1Nc1nc(Nc2cc3c(cc2OC)CCN3C(=O)CN(C)C)nc2[nH]ccc12
M14 melanoma
  GI50: 1510 nM
  TGI: 2840 nM
786-0 renal
  GI50: 1480 nM
  TGI: 2840 nM
IGROV1 ovarian
  GI50: 1760 nM
  TGI: 3270 nM
KM12 colon
  GI50: 1440 nM
  TGI: 2770 nM
HS 578T breast
  GI50: 1780 nM
  TGI: 3190 nM
K-562 leukemia
  GI50: 1750 nM
  TGI: 3140 nM
HCC-2998 colon
  GI50: 1410 nM
  TGI: 2760 nM
SK-MEL-5 melanoma
  GI50: 1220 nM
  TGI: 2480 nM
ACHN renal
  GI50: 1740 nM
  TGI: 3170 nM
SNB-75 CNS
  GI50: 2000 nM
  TGI: 3460 nM
SF-539 CNS
  GI50: 1800 nM
  TGI: 3200 nM
SK-MEL-28 melanoma
  GI50: 1870 nM
  TGI: 3270 nM
PC-3 prostate
  GI50: 2190 nM
  TGI: 4450 nM
OVCAR-8 ovarian
  GI50: 1710 nM
  TGI: 3120 nM
SF-295 CNS
  GI50: 1870 nM
  TGI: 3290 nM
TK-10 renal
  GI50: 1860 nM
  TGI: 3540 nM
SK-OV-3 ovarian
  GI50: 1970 nM
  TGI: 3450 nM
HCT-116 colon
  GI50: 1440 nM
  TGI: 2790 nM
HOP-92 NSCLC
  GI50: 1150 nM
  TGI: 2420 nM
OVCAR-3 ovarian
  GI50: 1800 nM
  TGI: 3250 nM
LOX IMVI melanoma
  GI50: 1610 nM
  TGI: 2970 nM
NCI-H460 NSCLC
  GI50: 1240 nM
  TGI: 2530 nM
COLO 205 colon
  GI50: 152 nM
  TGI: 1230 nM
HOP-62 NSCLC
  GI50: 1830 nM
  TGI: 3390 nM
NCI-H522 lung
  GI50: 1910 nM
  TGI: 3330 nM
MDA-MB-435 melanoma
  GI50: 1510 nM
  TGI: 2860 nM
UO-31 renal
  GI50: 1840 nM
  TGI: 3290 nM
T-47D breast
  GI50: 1940 nM
  TGI: 3380 nM
MDA-MB-468 breast
  GI50: 1560 nM
  TGI: 2920 nM
MCF7 breast
  GI50: 210 nM
  TGI: 1720 nM
SF-268 CNS
  GI50: 1300 nM
  TGI: 2610 nM
A498 renal
  GI50: 1820 nM
  TGI: 3220 nM
CAKI-1 renal
  GI50: 1820 nM
  TGI: 3240 nM
UACC-62 melanoma
  GI50: 1560 nM
  TGI: 2910 nM
A549 NSCLC
  GI50: 1410 nM
  TGI: 2760 nM
OVCAR-5 ovarian
  GI50: 1480 nM
  TGI: 3240 nM
NCI-H23 lung
  GI50: 1330 nM
  TGI: 2750 nM
NCI-H226 lung
  GI50: 1740 nM
  TGI: 3740 nM
MALME-3M melanoma
  GI50: 1250 nM
  TGI: 2510 nM
NCI/ADR-RES ovarian
  GI50: 2230 nM
  TGI: 4980 nM
OVCAR-4 ovarian
  GI50: 1990 nM
  TGI: 3500 nM
BT-549 breast
  GI50: 1660 nM
  TGI: 3040 nM
EKVX NSCLC
  GI50: 1600 nM
  TGI: 3090 nM
MOLT-4 leukemia
  GI50: 968 nM
  TGI: 2140 nM
RPMI-8226 leukemia
  GI50: 1140 nM
  TGI: 2370 nM
DU-145 prostate
  GI50: 1820 nM
  TGI: 3600 nM
SN12C renal
  GI50: 2050 nM
  TGI: 3500 nM
HCT-15 colon
  GI50: 1250 nM
  TGI: 2610 nM
SNB-19 CNS
  GI50: 2350 nM
  TGI: 4810 nM
HT29 colon
  GI50: 181 nM
  TGI: 1870 nM
NCI-H322M lung
  GI50: 1580 nM
  TGI: 3180 nM
UACC-257 melanoma
  GI50: 1720 nM
  TGI: 3110 nM
U251 glioblastoma
  GI50: 1900 nM
  TGI: 3350 nM
CCRF-CEM leukemia
  GI50: 387 nM
  TGI: 1220 nM
RXF 393 renal
  GI50: 1720 nM
  TGI: 3110 nM
SW-620 colon
  GI50: 1180 nM
  TGI: 2440 nM
HL-60(TB) leukemia
  GI50: 71.1 nM
  TGI: 944 nM
MDA-MB-231 breast
  GI50: 1590 nM
  TGI: 2980 nM
